From US11959486B2, “Stable liquid formulation of AMG 416 (etelcalcetide)” (AMGEN INC., priority 2013, dated 2024)
Where two headings read alike, the source gives them in different places.

Tests used:
[1] = Solution stability in different buffers (acetate, citrate, lactate, succinate), HPLC (Example 5); type: physicochemical; conditions: all buffers tested
Description: In this study, the stability of liquid formulations of AMG 416 was evaluated in four different buffers over 9 days. Buffered saline solutions were prepared at 25 mM concentration, pH 4.5, for four different anionic buffers in the sodium salt form: acetate, citrate, lactate and succinate. […] The solutions were diluted further with pH 4.5 buffer to 1.0 mg/mL and 0.25 mg/mL. Each of the resulting solutions was split to two glass HPLC vials, one stored at 2-8° C. and one at room temperature (about 25° C.). HPLC analysis was conducted at 0, 4 and 9 days for determination of potency and purity.

[2] = for Degradation at 2 y: 3.4 mg/mL in succinate-buffered saline
Description: In this study, the long term stability of a liquid formulation of AMG 416, at a concentration of 3.4 mg/mL, was determined over a range of pH in succinate-buffered saline. USP purified water (1200 mL) was dispensed into a glass beaker. Sodium succinate (4.05 g) and sodium chloride (13.5 g) were added and stirred to dissolve. The pH was adjusted to 2.5 with 1N NaOH and/or 1N HCl as required. […] The solution was divided into three portions and the pH for each portion was adjusted to 2.5, 3.0 and 3.5, respectively. Each solution was filtered separately through 0.22 micron PVDF filter and dispense 2 mL to 5-cc vials. After being stoppered, sealed, and labeled, the vials were place in designated stability chambers at 5° C.±3, 25° C.±2, and 40° C.±2. Samples were retrieved according to schedule and diluted with deionized water to 1.0 mg/mL for HPLC analysis.

With `CC(=O)N[C@H](CSSC[C@H](N)C(=O)O)C(=O)N[C@H](C)C(=O)N[C@H](CCCNC(=N)N)C(=O)N[C@H](CCCNC(=N)N)C(=O)N[C@H](CCCNC(=N)N)C(=O)N[C@H](C)C(=O)N[C@H](CCCNC(=N)N)C(N)=O` [AMG 416, N-acetyl-D-cysteinyl-D-alanyl-D-arginyl-D-arginyl-D-arginyl-D-alanyl-D-arginamide disulfide with L-cysteine] the “stability during the 9 day study” value [1] was “good stability”, the “Degradation at 2 y” value ([2]; pH 2.5, 5° C.) was 4.4% and the “Degradation at 2 y” value ([2]; pH 2.5, 25° C.) was 30.7%. For the same molecule, the “Degradation at 2 y” value ([2]; pH 2.5, 40° C.) was 78.8%, the “Degradation at 2 y” value ([2]; pH 3, 5° C.) was 1.5% and the “Degradation at 2 y” value ([2]; pH 3, 25° C.) was 14.6%. The “Degradation at 2 y” value ([2]; pH 3, 40° C.) was 60.0%, the “Degradation at 2 y” value ([2]; pH 3.5, 5° C.) was 0.9% and the “Degradation at 2 y” value ([2]; pH 3.5, 25° C.) was 10.0%. The “Degradation at 2 y” value ([2]; pH 3.5, 40° C.) was 53.1% and the stability over shelf-life ([2]; refrigerated conditions) was “adequate stability of AMG 416 over at least a two year shelf-life”.
